Results from patent publication US12371428B2 (Exelixis, Inc., priority 2019, dated 2025).
Counter-ions that a name gives are not always drawn. Like-named read-outs stand apart in the source and are kept apart here.

Key:
[1] = biological target: KDR (phospho-KDR, VEGF165-stimulated HUVEC cells) (Homo sapiens (Human), UniProt P35968); test: KDR autophosphorylation ELISA in HUVEC cells (Example G); type: cell-based; details: cellular activity; KDR autophosphorylation ELISA in HUVEC cells
Method in brief: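 Read-out is phospho-KDR measured by ELISA in lysates of VEGF165-stimulated (100 ng/mL, 5 min) HUVEC that were serum-starved 24 h and then pre-exposed 1 h to compound across 8 doses in 0.3% DMSO. Unstimulated lysates defined 0% and stimulated vehicle lysates 100% activity; IC50 values come from 4-parameter logistic regression.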

[2] = biological target: Met (phospho-Met, HGF-stimulated PC-3 prostate cancer cells) (Homo sapiens (Human), UniProt P08581); test: Met autophosphorylation ELISA in PC-3 cells (Example F); type: cell-based; details: cellular activity; Met autophosphorylation ELISA in PC-3 cells; read-out: c-Met IC50
Met (phospho-Met, HGF-stimulated PC-3 prostate cancer cells), sequence (P08581 25-1390): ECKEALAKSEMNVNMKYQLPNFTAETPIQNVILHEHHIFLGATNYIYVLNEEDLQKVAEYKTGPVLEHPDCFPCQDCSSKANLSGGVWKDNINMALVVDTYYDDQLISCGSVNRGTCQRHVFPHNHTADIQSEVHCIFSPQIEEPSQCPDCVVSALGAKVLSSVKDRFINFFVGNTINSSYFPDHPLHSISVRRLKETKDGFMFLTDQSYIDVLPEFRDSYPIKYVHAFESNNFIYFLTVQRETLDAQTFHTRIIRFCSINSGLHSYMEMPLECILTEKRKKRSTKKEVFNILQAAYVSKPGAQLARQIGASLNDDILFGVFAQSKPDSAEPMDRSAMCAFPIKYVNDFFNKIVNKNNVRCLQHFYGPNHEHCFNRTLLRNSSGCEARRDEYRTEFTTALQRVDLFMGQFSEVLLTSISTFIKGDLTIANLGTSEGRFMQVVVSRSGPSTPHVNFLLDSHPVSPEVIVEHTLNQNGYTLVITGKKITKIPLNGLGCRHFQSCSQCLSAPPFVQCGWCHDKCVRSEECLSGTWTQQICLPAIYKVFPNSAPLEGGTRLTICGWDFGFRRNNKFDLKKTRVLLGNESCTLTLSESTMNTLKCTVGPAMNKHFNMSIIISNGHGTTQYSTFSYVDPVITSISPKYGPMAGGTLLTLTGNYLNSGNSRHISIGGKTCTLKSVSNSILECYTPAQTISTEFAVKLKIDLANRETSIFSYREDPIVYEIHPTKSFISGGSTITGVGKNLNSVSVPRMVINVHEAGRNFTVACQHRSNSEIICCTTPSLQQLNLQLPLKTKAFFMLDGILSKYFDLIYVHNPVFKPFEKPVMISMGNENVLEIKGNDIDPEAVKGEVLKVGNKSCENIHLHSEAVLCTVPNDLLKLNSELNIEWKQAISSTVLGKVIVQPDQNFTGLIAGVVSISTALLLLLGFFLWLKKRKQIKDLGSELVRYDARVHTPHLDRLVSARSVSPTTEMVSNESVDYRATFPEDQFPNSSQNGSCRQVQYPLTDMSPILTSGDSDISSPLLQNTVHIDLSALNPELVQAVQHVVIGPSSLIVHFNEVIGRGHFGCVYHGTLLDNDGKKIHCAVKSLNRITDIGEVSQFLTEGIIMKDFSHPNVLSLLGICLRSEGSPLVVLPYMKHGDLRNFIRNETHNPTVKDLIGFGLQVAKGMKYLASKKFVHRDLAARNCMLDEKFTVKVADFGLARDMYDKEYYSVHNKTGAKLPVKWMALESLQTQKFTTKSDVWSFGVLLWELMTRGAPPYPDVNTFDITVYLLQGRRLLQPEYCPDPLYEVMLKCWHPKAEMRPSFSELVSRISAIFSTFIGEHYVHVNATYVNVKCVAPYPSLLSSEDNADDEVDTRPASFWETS
Method in brief: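 Compounds were tested on HGF-stimulated PC-3 cells. After 24 h culture and 3 h serum starvation, cells got compound for 1 h and 100 ng/mL HGF for 10 min, and Met tyrosine phosphorylation was measured by ELISA.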

[3] = biological target: Human MET (residues 956-1390) (Homo sapiens (Human), UniProt P08581); test: Human Met kinase assay, HTRF KinEase (Example D-2); type: biochemical; details: read-out: c-Met IC50
Human MET (residues 956-1390), sequence (P08581 956-1390): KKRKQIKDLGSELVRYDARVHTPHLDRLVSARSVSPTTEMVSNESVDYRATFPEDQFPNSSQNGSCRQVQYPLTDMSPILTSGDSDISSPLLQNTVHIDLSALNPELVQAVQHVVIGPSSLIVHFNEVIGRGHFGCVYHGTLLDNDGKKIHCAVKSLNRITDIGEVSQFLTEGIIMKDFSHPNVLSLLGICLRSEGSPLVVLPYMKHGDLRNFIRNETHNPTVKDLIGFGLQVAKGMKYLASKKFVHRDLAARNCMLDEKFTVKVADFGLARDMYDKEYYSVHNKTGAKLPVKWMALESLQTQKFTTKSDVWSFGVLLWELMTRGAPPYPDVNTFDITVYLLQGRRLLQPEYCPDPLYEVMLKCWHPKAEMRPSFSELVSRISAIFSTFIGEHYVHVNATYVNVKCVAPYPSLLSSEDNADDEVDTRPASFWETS
Method: Kinase activity and compound inhibition were also investigated using the HTRF® KinEase assay (Cisbio Cat #62TKOPEB) per manufacturer's instructions. In short, compounds were delivered in 300 nL volumes at 10 different concentrations in DMSO (3% final) to empty 384-well assay plates (Corning cat #3824). A mixture of enzyme, […] biotynlated peptide substrate, and buffer in 10 μL volume was added. The assay was started upon the addition of ATP (at Km). The 10 μL reaction was incubated at room temperature. The reaction was stopped upon the addition of detection buffer containing streptavidin-XL665 ([…]) and TK antibody-Eu3+([…]). After a 60 min incubation at room temperature, the fluorescence at 665 nm and 620 nm was read on an Envision microplate reader (Perkin Elmer).
Kinase activity normalized to DMSO (100% activity) and reference compound at […] and (0% activity) was calculated using the fluorescence ratio […]. IC50 values were calculated by nonlinear regression analysis using a 4-parameter logistic curve fit in ActivityBase XE (IDBS).
Example D-2: Human MET (residues 956-1390; CarnaBio, 0.1 ng/well) was also incubated with enzymatic buffer (Cisbio) supplemented with 5 mM MgCl2, 1 mM DTT and 1 mM MnCl2. The mixture was added to the pre-plated compounds. […] The reaction was incubated at room temperature for 40 min and stopped upon the addition of SA-XL665 and TK-antibody both diluted in EDTA-containing kinase detection buffer (Cisbio). The kinase activity was calculated as stated above and the IC50 values were reported.

[4] = biological target: Mer (phospho-Mer, MERTK-transfected 293A cells) (Homo sapiens (Human), UniProt Q12866); test: Mer autophosphorylation ELISA in transient transfected 293A cells (Example H); type: cell-based; details: cellular activity; Mer autophosphorylation ELISA in transient transfected 293A cells
Mer (phospho-Mer, MERTK-transfected 293A cells), sequence (Q12866 21-999): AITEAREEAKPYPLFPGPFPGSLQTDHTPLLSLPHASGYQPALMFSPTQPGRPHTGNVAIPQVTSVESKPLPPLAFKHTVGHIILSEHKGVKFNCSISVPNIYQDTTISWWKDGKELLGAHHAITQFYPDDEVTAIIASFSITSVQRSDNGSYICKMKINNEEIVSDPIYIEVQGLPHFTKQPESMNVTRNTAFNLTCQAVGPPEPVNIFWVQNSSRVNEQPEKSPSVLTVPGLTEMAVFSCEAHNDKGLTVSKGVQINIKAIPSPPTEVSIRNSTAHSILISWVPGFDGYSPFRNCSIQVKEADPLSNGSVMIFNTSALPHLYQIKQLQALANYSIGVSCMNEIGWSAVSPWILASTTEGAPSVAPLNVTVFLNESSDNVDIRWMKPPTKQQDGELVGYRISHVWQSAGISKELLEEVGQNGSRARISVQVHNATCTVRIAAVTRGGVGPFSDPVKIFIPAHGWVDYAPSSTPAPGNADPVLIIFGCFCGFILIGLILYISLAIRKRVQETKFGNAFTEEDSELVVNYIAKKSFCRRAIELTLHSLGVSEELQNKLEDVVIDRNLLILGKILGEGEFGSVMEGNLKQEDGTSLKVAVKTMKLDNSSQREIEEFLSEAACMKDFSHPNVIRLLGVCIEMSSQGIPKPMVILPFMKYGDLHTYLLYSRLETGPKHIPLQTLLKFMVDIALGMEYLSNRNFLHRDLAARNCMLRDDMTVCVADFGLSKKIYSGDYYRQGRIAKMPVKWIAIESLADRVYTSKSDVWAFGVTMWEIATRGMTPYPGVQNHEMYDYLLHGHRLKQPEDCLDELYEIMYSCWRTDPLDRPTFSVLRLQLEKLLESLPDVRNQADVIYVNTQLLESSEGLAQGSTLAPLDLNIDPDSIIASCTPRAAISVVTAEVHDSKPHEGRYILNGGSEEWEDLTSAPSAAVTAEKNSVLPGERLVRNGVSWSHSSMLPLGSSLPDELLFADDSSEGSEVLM
Method in brief: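 IC50 from phospho-Mer ELISA of MERTK-transfected 293A cell lysates after 1 h treatment with serially diluted compound in serum-free medium.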

[5] = protocol of Example D-2 (other compounds)

KDR (phospho-KDR, VEGF165-stimulated HUVEC cells), sequence (P35968 20-1356): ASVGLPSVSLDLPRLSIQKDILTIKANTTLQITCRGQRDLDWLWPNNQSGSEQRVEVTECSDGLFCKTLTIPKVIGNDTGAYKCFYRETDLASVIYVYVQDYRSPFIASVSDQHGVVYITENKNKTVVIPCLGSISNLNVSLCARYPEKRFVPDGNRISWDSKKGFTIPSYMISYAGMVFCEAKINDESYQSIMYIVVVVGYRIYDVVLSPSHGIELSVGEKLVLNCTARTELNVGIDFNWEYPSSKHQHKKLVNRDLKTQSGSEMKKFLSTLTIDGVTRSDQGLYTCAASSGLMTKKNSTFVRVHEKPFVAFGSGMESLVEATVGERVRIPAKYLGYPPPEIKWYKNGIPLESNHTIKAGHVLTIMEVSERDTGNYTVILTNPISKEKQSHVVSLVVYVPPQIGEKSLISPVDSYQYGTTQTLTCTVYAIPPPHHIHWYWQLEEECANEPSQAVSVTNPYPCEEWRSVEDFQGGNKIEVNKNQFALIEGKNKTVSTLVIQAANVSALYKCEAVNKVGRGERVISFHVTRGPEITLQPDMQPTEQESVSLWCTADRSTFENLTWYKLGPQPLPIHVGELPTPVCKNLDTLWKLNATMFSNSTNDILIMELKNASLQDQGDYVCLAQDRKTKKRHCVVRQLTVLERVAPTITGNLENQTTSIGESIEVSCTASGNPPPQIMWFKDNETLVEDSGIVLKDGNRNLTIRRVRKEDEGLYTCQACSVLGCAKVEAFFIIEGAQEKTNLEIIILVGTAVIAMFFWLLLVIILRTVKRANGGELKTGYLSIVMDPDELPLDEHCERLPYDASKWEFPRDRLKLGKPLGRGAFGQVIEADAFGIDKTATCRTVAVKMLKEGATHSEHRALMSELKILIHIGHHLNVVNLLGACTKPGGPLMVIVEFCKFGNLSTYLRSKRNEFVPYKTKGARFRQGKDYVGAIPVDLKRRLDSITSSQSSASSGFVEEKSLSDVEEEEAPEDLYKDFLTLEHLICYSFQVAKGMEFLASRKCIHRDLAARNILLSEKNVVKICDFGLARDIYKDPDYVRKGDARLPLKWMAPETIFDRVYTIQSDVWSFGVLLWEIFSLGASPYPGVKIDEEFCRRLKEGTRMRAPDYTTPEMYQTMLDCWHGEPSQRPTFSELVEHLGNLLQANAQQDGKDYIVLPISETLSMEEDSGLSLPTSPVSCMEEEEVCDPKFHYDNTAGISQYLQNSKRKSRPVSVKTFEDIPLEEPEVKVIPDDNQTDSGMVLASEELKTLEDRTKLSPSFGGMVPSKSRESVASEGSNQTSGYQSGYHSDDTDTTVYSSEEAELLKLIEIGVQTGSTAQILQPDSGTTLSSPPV

Structure (SMILES)	IC50 [1] [nM]	IC50 [2] [nM]	IC50 [3, 5] [nM]	IC50 [4] [nM]	IC50 ([3]; protocol of Example D-2) [nM]
COc1cc2nccc(Oc3ccc(NC(=O)c4cn(CC(F)(F)F)cc(-c5ccc(F)cc5)c4=O)cc3F)c2nc1OC [Compound 49, N-[4-[(6,7-Dimethoxy-1,5-naphthyridin-4-yl)oxy]-3-fluorophenyl]-5-(4-fluorophenyl)-4-oxo-1-(2,2,2-trifluoroethyl)pyridine-3-carboxamide]	> 300	< 100	< 100	< 100	
CNC(=O)c1cc2c(Oc3ccc(NC(=O)c4cnc(C)c(-c5ccc(F)cc5)c4O)cc3)ccnc2cc1OC [Compound 540, 4-[4-[[5-(4-fluorophenyl)-4-hydroxy-6-methylpyridine-3-carbonyl]amino]phenoxy]-7-methoxy-N-methylquinoline-6-carboxamide]	< 100	100 to 300		< 100	< 100
COc1cc2nccc(Oc3ccc(NC(=O)c4cn(O)cc(-c5ccc(F)cc5)c4=O)cc3F)c2nc1OC [Compound 134, N-[4-[(6,7-Dimethoxy-1,5-naphthyridin-4-yl)oxy]-3-fluorophenyl]-5-(4-fluorophenyl)-1-hydroxy-4-oxopyridine-3-carboxamide]	< 100	> 300	< 100	100 to 300	
COc1nc2c(Oc3ccc(NC(=O)c4cn(C(C)C)cc(-c5ccc(F)cc5)c4=O)cc3F)ccnc2cc1-c1cnn(C(F)F)c1 [Compound 608, N-[4-[[7-[1-(Difluoromethyl)pyrazol-4-yl]-6-methoxy-1,5-naphthyridin-4-yl]oxy]-3-fluorophenyl]-5-(4-fluorophenyl)-4-oxo-1-propan-2-ylpyridine-3-carboxamide]	< 100	< 100		< 100	< 100
Cc1ncc(C(=O)Nc2ccc(Oc3ccnc4cc(Br)cnc34)c(F)c2)c(O)c1-c1ccc(F)cc1 [Compound 133, N-[4-[(7-Bromo-1,5-naphthyridin-4-yl)oxy]-3-fluorophenyl]-5-(4-fluorophenyl)-4-hydroxy-6-methylpyridine-3-carboxamide]	100 to 300	100 to 300	< 100	100 to 300	
CCOCc1nc(C)c(-c2ccc(F)cc2C)c(O)c1C(=O)Nc1ccc(Oc2ccnc3cc(OC)cnc23)cc1 [Compound 781, 2-(ethoxymethyl)-5-(4-fluoro-2-methylphenyl)-4-hydroxy-N-[4-[(7-methoxy-1,5-naphthyridin-4-yl)oxy]phenyl]-6-methylpyridine-3-carboxamide]	> 300	< 100		< 100	
COc1ccc(-c2c(C)nc(C)c(C(=O)Nc3ccc(Oc4ccnc5cc(OC)c(OC)nc45)c(F)c3)c2O)cc1C [Compound 712, N-[4-[(6,7-dimethoxy-1,5-naphthyridin-4-yl)oxy]-3-fluorophenyl]-4-hydroxy-5-(4-methoxy-3-methylphenyl)-2,6-dimethylpyridine-3-carboxamide]	< 100	< 100		< 100	
COc1cc2nccc(Oc3ccc(NC(=O)c4cc(C(C)=O)c(C)n(-c5ccc(F)cc5C)c4=O)cc3F)c2nc1OC [Compound 720, 5-acetyl-N-[4-[(6,7-dimethoxy-1,5-naphthyridin-4-yl)oxy]-3-fluorophenyl]-1-(4-fluoro-2-methylphenyl)-6-methyl-2-oxopyridine-3-carboxamide]	> 300	< 100		< 100	
COc1cc2nccc(Oc3cc(F)c(NC(=O)c4c(C)nc(C)c(-c5ccc(F)cc5F)c4O)cc3F)c2nc1OC [Compound 777, 5-(2,4-difluorophenyl)-N-[4-[(6,7-dimethoxy-1,5-naphthyridin-4-yl)oxy]-2,5-difluorophenyl]-4-hydroxy-2,6-dimethylpyridine-3-carboxamide]	< 100	< 100		< 100	

Now from value to molecule:

IC50 [1] [nM]	IC50 [2] [nM]	IC50 [3, 5] [nM]	IC50 [4] [nM]	IC50 ([3]; protocol of Example D-2) [nM]	Structure (SMILES)
100 to 300	< 100	< 100	< 100		COc1cc2nccc(Oc3ccc(NC(=O)c4cn(C5CCC5)cc(-c5ccc(F)cc5)c4=O)cc3F)c2nc1OC [Compound 50, 1-Cyclobutyl-N-[4-[(6,7-dimethoxy-1,5-naphthyridin-4-yl)oxy]-3-fluorophenyl]-5-(4-fluorophenyl)-4-oxopyridine-3-carboxamide]
	< 100	< 100	< 100		COc1cnc2c(Oc3ccc(NC(=O)c4cn(C(C)C)cc(-c5ccc(F)cc5)c4=O)cc3)ccnc2c1 [Compound 145, 5-(4-Fluorophenyl)-N-[4-[(7-methoxy-1,5-naphthyridin-4-yl)oxy]phenyl]-4-oxo-1-propan-2-ylpyridine-3-carboxamide]
< 100	< 100		< 100	< 100	COc1nc2c(Oc3ccc(NC(=O)c4cnc(C)c(-c5ccc(F)cc5)c4O)cc3F)ccnc2cc1-c1cnn(C(F)F)c1 [Compound 607, N-[4-[[7-[1-(Difluoromethyl)pyrazol-4-yl]-6-methoxy-1,5-naphthyridin-4-yl]oxy]-3-fluorophenyl]-5-(4-fluorophenyl)-4-hydroxy-6-methylpyridine-3-carboxamide]
100 to 300	< 100	< 100	< 100		COc1cc2nccc(Oc3ccc(NC(=O)c4cn(N=C(N(C)C)N(C)C)cc(-c5ccc(F)cc5)c4=O)cc3F)c2nc1OC [Compound 137, 1-[bis(Dimethylamino)methylideneamino]-N-[4-[(6,7-dimethoxy-1,5-naphthyridin-4-yl)oxy]-3-fluorophenyl]-5-(4-fluorophenyl)-4-oxopyridine-3-carboxamide]
< 100	< 100		< 100	< 100	COc1nc2c(Oc3ccc(NC(=O)c4cnc(C)c(-c5ccc(F)cc5)c4O)cc3F)ccnc2cc1-c1cccnc1 [Compound 604, N-[3-Fluoro-4-[(6-methoxy-7-pyridin-3-yl-1,5-naphthyridin-4-yl)oxy]phenyl]-5-(4-fluorophenyl)-4-hydroxy-6-methylpyridine-3-carboxamide hydrochloride]
		< 100			COc1cc2nccc(Oc3ccc(NC(=O)c4cn(C5CN(C(=O)OC(C)(C)C)C5)cc(-c5ccc(F)cc5)c4=O)cc3F)c2nc1OC [Compound 114, tert-Butyl 3-[3-[[4-[(6,7-dimethoxy-1,5-naphthyridin-4-yl)oxy]-3-fluorophenyl]carbamoyl]-5-(4-fluorophenyl)-4-oxopyridin-1-yl]azetidine-1-carboxylate]
> 300	< 100	< 100	< 100		COc1cc2nccc(Oc3ccc(NC(=O)c4cn(-c5cnn(C)c5)cc(-c5ccc(F)cc5)c4=O)cc3F)c2nc1OC [Compound 51, N-[4-[(6,7-Dimethoxy-1,5-naphthyridin-4-yl)oxy]-3-fluorophenyl]-5-(4-fluorophenyl)-1-(1-methylpyrazol-4-yl)-4-oxopyridine-3-carboxamide]
> 300	100 to 300	< 100	< 100		COc1cc2nccc(Oc3ccc(NC(=O)c4cn(CCn5ccnc5)cc(-c5ccc(F)cc5)c4=O)cc3F)c2nc1OC [Compound 159, N-[4-[(6,7-Dimethoxy-1,5-naphthyridin-4-yl)oxy]-3-fluorophenyl]-5-(4-fluorophenyl)-1-(2-imidazol-1-ylethyl)-4-oxopyridine-3-carboxamide]
< 100	< 100		< 100		COCc1nc(C)c(-c2ccc(F)cc2F)c(O)c1C(=O)Nc1cc(F)c(Oc2ccnc3cc(OC)c(OC)nc23)cc1F [Compound 778, 5-(2,4-difluorophenyl)-N-[4-[(6,7-dimethoxy-1,5-naphthyridin-4-yl)oxy]-2,5-difluorophenyl]-4-hydroxy-2-(methoxymethyl)-6-methylpyridine-3-carboxamide]
